Where only a bound is given, the exact number is not on record here.

In general, IC50 refers to the concentration needed to halve the response being measured.

One assay addresses T1, human FAAH-1 (Homo sapiens, UniProt O00519).
T1 sequence (O00519 1-579): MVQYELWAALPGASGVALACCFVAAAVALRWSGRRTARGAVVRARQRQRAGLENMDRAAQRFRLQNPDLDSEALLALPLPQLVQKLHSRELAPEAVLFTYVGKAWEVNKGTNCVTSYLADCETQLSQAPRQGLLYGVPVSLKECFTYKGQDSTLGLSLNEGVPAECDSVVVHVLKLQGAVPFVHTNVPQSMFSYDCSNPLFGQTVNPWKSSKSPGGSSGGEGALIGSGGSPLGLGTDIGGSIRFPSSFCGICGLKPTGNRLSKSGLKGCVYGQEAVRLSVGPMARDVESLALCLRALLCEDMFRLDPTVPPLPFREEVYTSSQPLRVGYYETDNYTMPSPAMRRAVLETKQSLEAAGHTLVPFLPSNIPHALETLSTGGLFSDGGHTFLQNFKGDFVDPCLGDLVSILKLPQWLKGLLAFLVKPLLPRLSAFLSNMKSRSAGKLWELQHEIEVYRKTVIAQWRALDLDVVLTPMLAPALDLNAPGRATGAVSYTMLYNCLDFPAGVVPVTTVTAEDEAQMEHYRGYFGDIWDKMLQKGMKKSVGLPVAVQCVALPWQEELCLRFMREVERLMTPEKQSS
The assay can be described thus: Whole cell anandamide hydrolysis assay (HeLa clone 5c5 transfected with human FAAH-1).
Conditions: not given
It is filed as cell-based. The gist of the method: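 Stable HeLa clone 5c5 expressing human FAAH-1, pre-incubated with compound 10 min at 37° C in DMEM/F12 with 15 mM HEPES pH 7.4 and 0.1% fatty-acid-free BSA. [3H]-anandamide (5 μM stock) added for 15 min; [3H]-ethanolamine separated on charcoal and counted. IC50 from curves constrained to 100% and 0%.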
With `COc1cc(NC(=O)C(=O)c2c(C)n(Cc3ncc(F)cc3F)c3ccc(C)cc23)ccn1` [Compound 88, 2-(1-((3,5-difluoropyridin-2-yl)methyl)-2,5-dimethyl-1H-indol-3-yl)-N-(2-methoxypyridin-4-yl)-2-oxoacetamide], the half-maximal inhibitory concentration (IC50) is under 100 nM.

Still in this assay, the particulars now being: HeLa clone 5c5 expressing human FAAH-1; read-out: human FAAH whole cell IC50.
Turning to `COc1cc(NC(=O)C(=O)c2c(C)n(Cc3ccc(Cl)cn3)c3ccc(Cl)cc23)ccn1` [Compound 63, 2-(5-chloro-1-((5-chloropyridin-2-yl)methyl)-2-methyl-1H-indol-3-yl)-N-(2-methoxypyridin-4-yl)-2-oxoacetamide], the IC50 was under 100 nM.
Same read-out and setting: with `COc1cc(NC(=O)C(=O)c2c(C)n(Cc3ccc(Cl)cn3)c3cc(F)c(OC)cc23)ccn1` [Compound 64, 2-(1-((5-chloropyridin-2-yl)methyl)-6-fluoro-5-methoxy-2-methyl-1H-indol-3-yl)-N-(2-methoxypyridin-4-yl)-2-oxoacetamide] the figure was under 100 nM; with `COc1cc(NC(=O)C(=O)c2c(C)n(Cc3ccc(Cl)cn3)c3ccc(N)cc23)ccn1` [Compound 65, 2-(5-amino-1-((5-chloropyridin-2-yl)methyl)-2-methyl-1H-indol-3-yl)-N-(2-methoxypyridin-4-yl)-2-oxoacetamide], under 100 nM.
On the same count and under the same terms, as for `COc1cc(NC(=O)C(=O)c2c(C)n(Cc3ccc(Cl)cn3)c3ccc(N(C)C)cc23)ccn1` [Compound 66, 2-(1-((5-chloropyridin-2-yl)methyl)-5-(dimethylamino)-2-methyl-1H-indol-3-yl)-N-(2-methoxypyridin-4-yl)-2-oxoacetamide], the figure is under 100 nM; as for `COc1cc(NC(=O)C(=O)c2c(C)n(Cc3ccc(Cl)cn3)c3cc(OC)c(Cl)cc23)ccn1` [Compound 67, 2-(5-chloro-1-((5-chloropyridin-2-yl)methyl)-6-methoxy-2-methyl-1H-indol-3-yl)-N-(2-methoxypyridin-4-yl)-2-oxoacetamide], under 100 nM; as for `COc1cc(NC(=O)C(=O)c2c(C)n(Cc3ccc(Cl)cn3)c3ccccc23)ccn1` [Compound 68, 2-(1-((5-chloropyridin-2-yl)methyl)-2-methyl-1H-indol-3-yl)-N-(2-methoxypyridin-4-yl)-2-oxoacetamide], under 100 nM.
In the case of `COc1ccc(Cn2c(C)c(C(=O)C(=O)Nc3ccnc(OC)c3)c3cc(C)ccc32)nc1` [Compound 69, 2-(1-((5-methoxypyridin-2-yl)methyl)-2,5-dimethyl-1H-indol-3-yl)-N-(2-methoxypyridin-4-yl)-2-oxoacetamide], the IC50 is under 100 nM.
Regarding `COc1cc(NC(=O)C(=O)c2c(C)n(Cc3ncc(Cl)cc3Cl)c3cc(Cl)c(OC)cc23)ccn1` [Compound 70, 2-(6-chloro-1-((3,5-dichloropyridin-2-yl)methyl)-5-methoxy-2-methyl-1H-indol-3-yl)-N-(2-methoxypyridin-4-yl)-2-oxoacetamide], the half-inhibitory concentration (IC50) is under 100 nM.
Still for that read-out and setting: with `Cc1c(C(=O)C(=O)Nc2cccc(Cl)c2)c2cc(O)ccc2n1Cc1ccc(Cl)cc1` [Compound 71, 2-(1-(4-chlorobenzyl)-5-hydroxy-2-methyl-1H-indol-3-yl)-N-(3-chlorophenyl)-2-oxoacetamide] the figure was under 100 nM; with `COc1cc(NC(=O)C(=O)c2c(C)n(Cc3ccc(Cl)cc3)c3cc(F)c(OC)cc23)ccn1` [Compound 72, 2-(1-(4-chlorobenzyl)-6-fluoro-5-methoxy-2-methyl-1H-indol-3-yl)-N-(2-methoxypyridin-4-yl)-2-oxoacetamide], under 100 nM; with `COc1cc(NC(=O)C(=O)c2c(C)n(Cc3ccc(Cl)cc3)c3ccc(N)c(Cl)c23)ccn1` [Compound 73, 2-(5-amino-4-chloro-1-(4-chlorobenzyl)-2-methyl-1H-indol-3-yl)-N-(2-methoxypyridin-4-yl)-2-oxoacetamide], under 100 nM.
For the compound `COc1cc(NC(=O)C(=O)c2c(C)n(Cc3ccc(Cl)cc3)c3cc(C)c(OC)cc23)ccn1` [Compound 74, 2-(1-(4-chlorobenzyl)-5-methoxy-2,6-dimethyl-1H-indol-3-yl)-N-(2-methoxypyridin-4-yl)-2-oxoacetamide], the 50% inhibitory concentration (IC50) was under 100 nM.
For `COc1cc(NC(=O)C(=O)c2c(C)n(Cc3ccc(Cl)cn3)c3ncc(C)cc23)ccn1` [Compound 75, (1-((5-chloropyridin-2-yl)methyl)-2,5-dimethyl-1H-pyrrolo[2,3-b]pyridin-3-yl)-N-(2-methoxypyridin-4-yl)-2-oxoacetamide], the IC50 is under 100 nM.
Turning to `COc1cc(NC(=O)C(=O)c2c(C)n(Cc3ccc(Cl)cc3)c3ncc(C)cc23)ccn1` [Compound 76, 2-(1-(4-chlorobenzyl)-2,5-dimethyl-1H-pyrrolo[2,3-b]pyridin-3-yl)-N-(2-methoxypyridin-4-yl)-2-oxoacetamide], the concentration for half-maximal inhibition (IC50) is under 100 nM.
The same measure, in the same setting: as for `COc1ccc2c(c1)c(C(=O)C(=O)Nc1ccnc(OC)c1)c(C)n2Cc1ccccn1` [Compound 77, 2-(5-methoxy-2-methyl-1-(pyridin-2-ylmethyl)-1H-indol-3-yl)-N-(2-methoxypyridin-4-yl)-2-oxoacetamide], the figure is under 100 nM; as for `COc1cc(NC(=O)C(=O)c2c(C)n(Cc3ccc(Cl)cn3)c3cc(C)c(OC)cc23)ccn1` [Compound 95, 2-(1-((5-chloropyridin-2-yl)methyl)-5-methoxy-2,6-dimethyl-1H-indol-3-yl)-N-(2-methoxypyridin-4-yl)-2-oxoacetamide], under 100 nM; as for `COc1ccc(Cn2c(C)c(C(=O)C(=O)Nc3ccnc(OC)c3)c3cc(OC)c(C)cc32)nc1` [Compound 96, 2-(5-methoxy-1-((5-methoxypyridin-2-yl)methyl)-2,6-dimethyl-1H-indol-3-yl)-N-(2-methoxypyridin-4-yl)-2-oxoacetamide], under 100 nM.
Same read-out and setting: with `COc1cc(NC(=O)C(=O)c2c(C)n(Cc3ncc(Cl)cc3F)c3cc(Cl)c(OC)cc23)ccn1` [Compound 97, 2-(6-chloro-1-((5-chloro-3-fluoropyridin-2-yl)methyl)-5-methoxy-2-methyl-1H-indol-3-yl)-N-(2-methoxypyridin-4-yl)-2-oxoacetamide] the figure was under 100 nM.
On to `COc1ccc(Cn2c(C)c(C(=O)C(=O)Nc3ccnc(OC)c3)c3cc(OC)c(Cl)cc32)nc1` [Compound 98, 2-(6-chloro-5-methoxy-1-((5-methoxypyridin-2-yl)methyl)-2-methyl-1H-indol-3-yl)-N-(2-methoxypyridin-4-yl)-2-oxoacetamide], for which the IC50 is under 100 nM.
Consider `COc1cc(NC(=O)C(=O)c2c(C)n(Cc3ncc(Cl)cc3F)c3cc(F)c(OC)cc23)ccn1` [Compound 99, 2-(1-((5-chloro-3-fluoropyridin-2-yl)methyl)-6-fluoro-5-methoxy-2-methyl-1H-indol-3-yl)-N-(2-methoxypyridin-4-yl)-2-oxoacetamide], for which the 50% inhibitory concentration (IC50) is under 100 nM.
Consider `COc1ccc2c(c1)c(C(=O)C(=O)Nc1ccnc(OC)c1)c(C)n2Cc1ncc(Cl)cc1OC` [Compound 100, 2-(1-((5-chloro-3-methoxypyridin-2-yl)methyl)-5-methoxy-2-methyl-1H-indol-3-yl)-N-(2-methoxypyridin-4-yl)-2-oxoacetamide], for which the half-inhibitory concentration (IC50) was under 100 nM.
Still for that read-out and setting: as for `COc1cc(NC(=O)C(=O)c2c(C)n(Cc3ncc(F)cc3F)c3cc(F)c(OC)cc23)ccn1` [Compound 101, 2-(1-((3,5-difluoropyridin-2-yl)methyl)-6-fluoro-5-methoxy-2-methyl-1H-indol-3-yl)-N-(2-methoxypyridin-4-yl)-2-oxoacetamide], the figure is under 100 nM.

The record behind these values is patent US20150175599A1, “FAAH Inhibitors” (Ironwood Pharmaceuticals, Inc., priority 2010, published 2015).
